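Exposure lasted 48 hours, with cells grown in 96-well plates and compounds tested at five concentrations. TGI: concentration producing complete growth inhibition.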
Experiments:
Test in all cases: NCI-60 cell line screen, 48 h
OVCAR-4 ovarian = tested on: OVCAR-4 ovarian
SW-620 colon = tested on: SW-620 colon
HCC-2998 colon = tested on: HCC-2998 colon
UACC-257 melanoma = tested on: UACC-257 melanoma
HOP-62 NSCLC = tested on: HOP-62 NSCLC
KM12 colon = tested on: KM12 colon
ACHN renal = tested on: ACHN renal
OVCAR-5 ovarian = tested on: OVCAR-5 ovarian
OVCAR-8 ovarian = tested on: OVCAR-8 ovarian
NCI-H460 lung = tested on: NCI-H460 lung
786-0 renal = tested on: 786-0 renal
EKVX NSCLC = tested on: EKVX NSCLC
SN12C renal = tested on: SN12C renal
UO-31 renal = tested on: UO-31 renal
DLD-1 colon = tested on: DLD-1 colon
SK-MEL-5 melanoma = tested on: SK-MEL-5 melanoma
NCI-H226 lung = tested on: NCI-H226 lung
RPMI-8226 leukemia = tested on: RPMI-8226 leukemia
HL-60(TB) leukemia = tested on: HL-60(TB) leukemia
HT29 colon = tested on: HT29 colon
M14 melanoma = tested on: M14 melanoma
MOLT-4 leukemia = tested on: MOLT-4 leukemia
MALME-3M melanoma = tested on: MALME-3M melanoma
SK-MEL-2 melanoma = tested on: SK-MEL-2 melanoma
IGROV1 ovarian = tested on: IGROV1 ovarian
LXFL 529 NSCLC = tested on: LXFL 529 NSCLC
UACC-62 melanoma = tested on: UACC-62 melanoma
SF-295 CNS = tested on: SF-295 CNS
SNB-19 CNS = tested on: SNB-19 CNS
SNB-78 CNS = tested on: SNB-78 CNS
SK-MEL-28 melanoma = tested on: SK-MEL-28 melanoma
NCI-H23 lung = tested on: NCI-H23 lung
KM20L2 colon = tested on: KM20L2 colon
U251 CNS = tested on: U251 CNS
HCT-116 colon = tested on: HCT-116 colon
COLO 205 colon = tested on: COLO 205 colon
TK-10 renal = tested on: TK-10 renal
A549 NSCLC = tested on: A549 NSCLC
M19-MEL melanoma = tested on: M19-MEL melanoma
CCRF-CEM leukemia = tested on: CCRF-CEM leukemia
LOX IMVI melanoma = tested on: LOX IMVI melanoma
SF-268 CNS = tested on: SF-268 CNS
SNB-75 CNS = tested on: SNB-75 CNS
OVCAR-3 ovarian = tested on: OVCAR-3 ovarian
RXF 393 renal = tested on: RXF 393 renal
HOP-92 NSCLC = tested on: HOP-92 NSCLC
SR leukemia = tested on: SR leukemia
HCT-15 colon = tested on: HCT-15 colon
MDA-N = tested on: MDA-N
A498 renal = tested on: A498 renal
CAKI-1 renal = tested on: CAKI-1 renal
NCI-H522 lung = tested on: NCI-H522 lung
SK-OV-3 ovarian = tested on: SK-OV-3 ovarian
DU-145 prostate = tested on: DU-145 prostate
MCF7 breast = tested on: MCF7 breast
K-562 leukemia = tested on: K-562 leukemia
SF-539 CNS = tested on: SF-539 CNS
T-47D breast = tested on: T-47D breast
MDA-MB-231 breast = tested on: MDA-MB-231 breast
BT-549 breast = tested on: BT-549 breast
MDA-MB-435 = tested on: MDA-MB-435
PC-3 prostate = tested on: PC-3 prostate
NCI/ADR-RES ovarian = tested on: NCI/ADR-RES ovarian
HS 578T breast = tested on: HS 578T breast

CCCCCCC(=O)C/C(=N/NC(N)=S)C(=O)NC1C2CC3CC(C2)CC1C3 (centres undefined)
TGI (OVCAR-4 ovarian): > 100 µM | TGI (SW-620 colon): > 100 µM | TGI (HCC-2998 colon): > 100 µM | TGI (UACC-257 melanoma): > 100 µM | TGI (HOP-62 NSCLC): > 100 µM | TGI (KM12 colon): > 100 µM | TGI (ACHN renal): > 100 µM | TGI (OVCAR-5 ovarian): > 100 µM | TGI (OVCAR-8 ovarian): > 100 µM | TGI (NCI-H460 lung): > 100 µM | TGI (786-0 renal): > 100 µM | TGI (EKVX NSCLC): > 100 µM | TGI (SN12C renal): > 100 µM | TGI (UO-31 renal): > 100 µM | TGI (DLD-1 colon): > 100 µM | TGI (SK-MEL-5 melanoma): > 100 µM | TGI (NCI-H226 lung): > 100 µM | TGI (RPMI-8226 leukemia): > 100 µM | TGI (HL-60(TB) leukemia): > 100 µM | TGI (HT29 colon): > 100 µM | TGI (M14 melanoma): > 100 µM | TGI (MOLT-4 leukemia): > 100 µM | TGI (MALME-3M melanoma): > 100 µM | TGI (SK-MEL-2 melanoma): > 100 µM | TGI (IGROV1 ovarian): > 100 µM | TGI (LXFL 529 NSCLC): > 100 µM | TGI (UACC-62 melanoma): > 100 µM | TGI (SF-295 CNS): > 100 µM | TGI (SNB-19 CNS): > 100 µM | TGI (SNB-78 CNS): > 100 µM | TGI (SK-MEL-28 melanoma): > 100 µM | TGI (NCI-H23 lung): > 100 µM | TGI (KM20L2 colon): > 100 µM | TGI (U251 CNS): > 100 µM | TGI (HCT-116 colon): > 100 µM | TGI (COLO 205 colon): > 100 µM | TGI (TK-10 renal): > 100 µM | TGI (A549 NSCLC): > 100 µM | TGI (M19-MEL melanoma): > 100 µM | TGI (CCRF-CEM leukemia): > 100 µM | TGI (LOX IMVI melanoma): > 100 µM | TGI (SF-268 CNS): > 100 µM | TGI (SNB-75 CNS): > 100 µM | TGI (OVCAR-3 ovarian): > 100 µM | TGI (RXF 393 renal): > 100 µM | TGI (HOP-92 NSCLC): > 100 µM

Cc1nc2ccccc2n1C(=O)c1c(F)c(F)c(F)c(F)c1F
TGI (OVCAR-4 ovarian): 29 µM | TGI (SW-620 colon): 49.8 µM | TGI (HCC-2998 colon): 34.2 µM | TGI (SR leukemia): > 100 µM | TGI (UACC-257 melanoma): 39.1 µM | TGI (HOP-62 NSCLC): 68.3 µM | TGI (KM12 colon): 14.7 µM | TGI (ACHN renal): 60.7 µM | TGI (OVCAR-5 ovarian): 40.8 µM | TGI (HCT-15 colon): 33.9 µM | TGI (OVCAR-8 ovarian): 40.6 µM | TGI (NCI-H460 lung): 52 µM | TGI (MDA-N): 33.2 µM | TGI (EKVX NSCLC): > 100 µM | TGI (SN12C renal): 30.6 µM | TGI (UO-31 renal): 33.9 µM | TGI (A498 renal): 57 µM | TGI (CAKI-1 renal): 48.9 µM | TGI (SK-MEL-5 melanoma): 26.9 µM | TGI (NCI-H226 lung): 65.5 µM | TGI (NCI-H522 lung): 10.9 µM | TGI (SK-OV-3 ovarian): 62 µM | TGI (DU-145 prostate): 76.5 µM | TGI (RPMI-8226 leukemia): 38.3 µM | TGI (HL-60(TB) leukemia): > 100 µM | TGI (HT29 colon): 27.5 µM | TGI (M14 melanoma): 25.9 µM | TGI (MOLT-4 leukemia): 27.1 µM | TGI (MCF7 breast): > 100 µM | TGI (K-562 leukemia): > 100 µM | TGI (MALME-3M melanoma): 57.5 µM | TGI (SK-MEL-2 melanoma): 46.6 µM | TGI (IGROV1 ovarian): 44.8 µM | TGI (SF-539 CNS): 29.5 µM | TGI (UACC-62 melanoma): 44.1 µM | TGI (SF-295 CNS): > 100 µM | TGI (T-47D breast): > 100 µM | TGI (SNB-19 CNS): > 100 µM | TGI (MDA-MB-231 breast): 32 µM | TGI (BT-549 breast): 39.5 µM | TGI (SK-MEL-28 melanoma): 82.9 µM | TGI (NCI-H23 lung): 56.2 µM | TGI (MDA-MB-435): 20 µM | TGI (PC-3 prostate): 71.4 µM | TGI (U251 CNS): 52.6 µM | TGI (HCT-116 colon): 21.8 µM | TGI (COLO 205 colon): 77.9 µM | TGI (TK-10 renal): 66.3 µM | TGI (NCI/ADR-RES ovarian): 42.4 µM | TGI (A549 NSCLC): > 100 µM | TGI (CCRF-CEM leukemia): > 100 µM | TGI (LOX IMVI melanoma): 25.1 µM | TGI (SF-268 CNS): > 100 µM | TGI (SNB-75 CNS): 90.1 µM | TGI (HS 578T breast): > 100 µM | TGI (OVCAR-3 ovarian): 71.6 µM | TGI (RXF 393 renal): 33.5 µM | TGI (HOP-92 NSCLC): 27.9 µM

Source: PubChem BioAssay (NCI)
